Data set [1] relates to kidneys of db/db mice. As to the kind of experiment: Pathological sections of kidney (HE, PAS) of db/db mice. In kind it is in vivo. To be noted: 6 weeks, irbesartan 50, verbascoside 70.8 mg·kg^−1·d^−1.
For data set [2], the system named is db/db mice serum. Description: Serum metabonomics (UPLC-QTOF/MS, PLS-DA) of db/db mice. In kind it is in vivo. To be noted: mouse serum, mean ± SD, n = 6; for Relative distance between administration group and control group in PLS-DA score plot, ESI −: negative ion mode, model group 43.46 ± 3.15; for Relative distance between administration group and control group in PLS-DA score plot, ESI +: positive ion mode, model group 36.62 ± 3.28. How it is done:
After 6 weeks of administration, each of the mice was subjected to blood collection by removing eyeballs. The blood sample was centrifuged at 4° C. and 3000 rpm for 10 minutes to obtain a serum. 100 μL of the frozen-thawed serum was mixed uniformly with 300 μL of acetonitrile under vortex for 2 minutes to produce a mixture. The mixture was centrifuged at 4° C. and 13000 rpm for 10 minutes, and the protein precipitate was removed while the supernatant was collected for determination.
Chromatographic conditions: ACQUITY™UPLC BEH C18 column (2.1 mm×100 mm, 1.7 μm); and mobile phase: 0.1% formic acid aqueous solution (A)−acetonitrile (B). The gradient elution of serum was programmed as follows: 0-3 minutes, 95%-55% A; […], 55%-5% A; 13-14 minutes, 5% A. The injection volume was 2 μL and a column temperature of 35° C. was employed.
Mass spectrometry conditions: ESI ion source (ESI^+/ESI^−); mass scanning range: 100-1000 m/z; a capillary voltage of 3.0 kV and a cone voltage of 30 V; an extraction voltage of 2.0 V; ion source temperature and desolvation temperature: respectively 120° C. and 350° C.; cone gas flow rate: 50 L/h; collision energy: 20-50 eV; desolvation gas flow rate: 600 L/h; activation time: 30 ms; and collision gas: high-purity nitrogen. Leucine-enkephalin (ESI^−: 555.2615 m/z, ESI^+: 556.2771 m/z) solution of 200 pg/mL was used as a mass-locking solution at a flow rate of 100 μL/min.
The obtained original mass spectrometry data was processed using Masslynx v4.1 software. The main parameters included: retention time range: 0-14 minutes; m/z range: 100-1000; mass tolerance range: 0.01 Da; peak intensity threshold: 50; mass window: 0.05 Da; retention time window: 0.2 minutes; and automatic detection of 5% peak height and noise. The intensity of each ion was normalized relative to the total ion count to produce a data list consisting of retention time, m/z value and standardized peak area. The data were imported into EZinfo 2.0 for supervised partial least squares discriminant analysis (PLS-DA) and orthogonal partial least squares discriminant analysis (OPLS-DA). The separation of various metabolites between the control group and the model group was shown in the OPLS-DA plot. Potential biomarkers were extracted from the S-plot constructed after OPLS-DA analysis, and each point in the S-plot represented the information of the corresponding variable. The variable importance in the projection (VIP) was measured by the magnitude of the VIP value. The variables were screened according to the VIP value, and the variable with VIP>1 may be selected as a potential biomarker and the molecular formula of the variable of significant difference between the model group and the control group was further identified. Cross validation parameters R^2Y and Q^2were used to describe the PLS-DA score plot, which represented the total explanatory variables of the […] and the predictability of the model, respectively. When a cumulative value of R^2Y and Q^2 was greater than 0.8, the model may be considered to be reliable. The relative distances between other groups and the control group in the PLS-DA score plot were calculated using the average values of all samples (X and Y axes) of the control group as reference points. This quantitative value can be used as an evaluation index of pharmacodynamics and metabonomics to solve many problems in lacking of accurate and quantitative evaluation methods for pharmacodynamics. SPSS 21.0 software was used for statistical analysis of the relevant data. T-test analysis was performed among groups to verify the significance of the difference of potential biomarkers in different groups. The data were expressed as mean±SD, and the data were considered to have a statistical significance with P<0.05. […]

For data set [3], the system named is HK-2 cells. Description: Proliferation of high-glucose induced HK-2 cells. In kind it is cell-based, human. To be noted: for OD / inhibition ratio %: 48 hours; for effect on the proliferation of HK-2: in vitro studies, discussion. Here is the method: (§1) Human renal tubular epithelial cells (HK-2) were provided by Nanjing KeyGEN Biotechnology Development Co., Ltd. The complete medium was a low-sugar DMEM with 10% FBS and 1% penicillin-streptomycin solution. The cells were cultured at 37° C. under 5% CO2 and saturated humidity in an incubator. Cells were spread in a 96-well plate and cultured with a 5 mmol/Llow-sugar DMEM for 24 hours. […] The number of cells in each group was detected using a cell counting method after 48 hours of the incubation.

Data set [4] has as its system db/db mice. As to the kind of experiment: Biochemical indexes of db/db mice after 6 weeks of intragastric administration. The format is in vivo. Particulars: ig once a day for 6 weeks, metformin 250, irbesartan 50, verbascoside 70.8 mg·kg^−1·d^−1.
Description: 32 male db/db mice and 10 male db/m mice of SPF grade, aged 6-8 weeks and weighing 25-40 g, were purchased from Nanjing Biomedical Research Institute of Nanjing University with an animal license number of SCXK (Su 2015-0001).The mice were raised in an animal room under alternating light and dark every 12 hours with constant temperature of 22±2° C. and humidity of 55±10%.
All mice were adaptively fed for 3 weeks, and db/m mice were used as a control group with a total number of 10. Db/db mice were randomly divided into four groups according to blood sugar and body weight each of 8 mice, and the four groups respectively were a model group (M), a metformin group (EJSG, 250 mg·kg^−1·d^−1), an irbesartan group (EBST, 50 mg·kg^−1·d^−1) and a verbascoside group (MRHTG, 70.8 mg·kg^−1·d^−1). The same amount of saline was intragastrically administered(ig) to the mice in the control group and the model group, and the volume of intragastric administration (ig) was 10 mL·kg^−1, and such administration was performed once a day for continuous 6 weeks.
One day before the end of the experiment, urine was collected in a metabolic cage for 12 hours and the urine volume was recorded. Microalbuminuria content was measured and fasting blood glucose (FBG) of mice in each group was measured by tail vein blood sampling. After drug intervention, mice were anesthetized with intraperitoneal injection of 10% chloral hydrate, and blood was collected from eyeballs. The blood was centrifuged at 3000 rpm and 4° C. for 10 minutes to obtain a serum. The serum was then subjected to determination of serum creatinine, blood urea nitrogen, blood insulin, cholesterol, triglyceride, glutamic-pyruvic transaminase and glutamic-oxalacetic transaminase contents.
The test system of data set [5] is HK-2 cells. As to the kind of experiment: Morphology of high-glucose induced HK-2 cells. The format is cell-based, human. Particulars: 50 μmol/L, 48 hours.
Data set [6] concerns nephrotoxic nephritis rats model. To be noted: cited from earlier work.
Data set [7] relates to MCP-1, IL-1β, TNF-α and IL-6 in supernatant of HK-2 cells. As to the kind of experiment: Secretion of inflammatory factors in supernatant of HK-2 cells (ELISA). The format is cell-based, human. To be noted: 50 μmol/L, HK-2 cells with high glucose-induced injuries.
Text: (§2) In the present invention, human renal tubular epithelial (HK-2) cells are selected to establish a high sugar-induced HK-2 cell injury model, and TLR capsules, TLR extract and its major active components verbascoside and catalpol are used for intervention. The expression quantity of related proteins and mRNA in each cell is detected using Western blotting method and Real-time PCR, and the secretion of related factors in cell supernatant is detected using ELISA. In addition, the effect of TLR on regulating oxidative stress reactions of HK-2 cells and TGF-β/smad signal pathway is further explored.
as §1
(In general: ELISA stands for enzyme-linked immunosorbent assay.)

Data set [8] has as its system NOX1, NOX2, NOX4, α-SMA, E-cadherin, NF-κB p65, TGF-β1, Smad2, Smad3, Smad4 and Smad7 in HK-2 cells. As to the kind of experiment: Protein expression in high-glucose induced HK-2 cells (Western blotting). The format is cell-based, human. To be noted: for effect on the formation of EMT: in vitro studies, HK-2, discussion. How it is done:
as §1, with “The expression quantity of related proteins and mRNA in each cell is detected using Western blotting method and Real-time PCR, and the secretion of related factors in cell supernatant is detected using ELISA. […] Human” for “Human”
Background: A western blot detects proteins with antibodies after separation by electrophoresis.

Data set [9] has the same test system. As to the kind of experiment: mRNA expression in high-glucose induced HK-2 cells (Real-time PCR). To be noted: 50 μmol/L, HK-2 cells with high glucose-induced injuries. In kind it is cell-based, human.
Text: as §2, §1
(In qPCR the cycle at which signal appears reflects the starting amount.)

For data set [10] the following is noted: rats; cited from earlier work.
[11] abbreviates: 50 μmol·L^−1, high glucose 30 mmol/L.
[12] abbreviates: 10 μmol·L^−1, high glucose 30 mmol/L.
[13] abbreviates: 25 μmol·L^−1, high glucose 30 mmol/L.
Setting [14] is: 100 μmol·L^−1, high glucose 30 mmol/L.

Each structure is given as a SMILES string.

Results on four compounds are retold here after US20210161929A1, “USES OF VERBASCOSIDE IN TREATMENT OF DIABETIC-ASSOCIATED KDINEY INJURY AND DIABETIC-ASSOCIATED LIVER INJURY” (NANJING UNIVERSITY OF CHINESE MEDICINE, priority 2018, published 2021).

Turning to `CCCCC1=NC2(CCCC2)C(=O)N1Cc1ccc(-c2ccccc2-c2nnn[nH]2)cc1` [irbesartan, reference compound], in data set [1], the “results of histological examination of kidney (HE, PAS mean OD)” value was “close to those of the control group”. Further, in data set [2], the “Relative distance between administration group and control group in PLS-DA score plot, ESI −” value is 32.16 ± 10; the “Relative distance between administration group and control group in PLS-DA score plot, ESI +” value is listed as 21.56 ± 8.01. In addition, in [3] (setting [11]), the OD came to 0.576 ± 0.02 and the inhibition ratio % was 80.57%. Moreover, the “contents of FBG, T-CHO, TG, GOT, GPT, INS, BUN, mALB and Scr” value (“contents of FBG, T-CHO, TG, GOT, GPT” below) in [4] is “tended to be normal”. Moreover, the cell morphologies result in data set [5] is given as “close to those of the control group”.
For `C[C@@H]1O[C@@H](O[C@@H]2[C@@H](O)[C@H](OCCc3ccc(O)c(O)c3)O[C@H](CO)[C@H]2OC(=O)/C=C/c2ccc(O)c(O)c2)[C@H](O)[C@H](O)[C@H]1O` [verbascoside], the “results of histological examination of kidney (HE, PAS mean OD)” value in [1] is given as “close to those of the control group”. Moreover, the adverse effects result in [6] is recorded as “without causing obvious adverse effects”. The renal function injury entry in data set [6] was “capable of improving”. In addition, the “expression levels of MCP-1, IL-1β, TNF-α and IL-6 in the supernatant” value in data set [7] was “returned to normal”. Moreover, the “Relative distance between administration group and control group in PLS-DA score plot, ESI −” value in [2] was 28.59 ± 3.33. Moreover, the “Relative distance between administration group and control group in PLS-DA score plot, ESI +” value in data set [2] stood at 31.62 ± 1.07. Also, the inhibition ratio % in [3] (5 μmol·L^−1, high glucose 30 mmol/L) amounted to 25.52%; in data set [3] (setting [12]), 39.02%; in [3] (setting [13]), 54.36%; in data set [3] (setting [11]), 73.95%; in data set [3] (setting [14]) it was 74.65%. For the same compound, the OD turned out to be 0.418 ± 0.008 in [3] (5 μmol·L^−1, high glucose 30 mmol/L, control 0.632, model 0.345); 0.457 ± 0.014 in [3] (setting [12]); 0.501 ± 0.015 in [3] (setting [13]); 0.557 ± 0.012 in data set [3] (setting [11]); 0.559 ± 0.01 in data set [3] (setting [14]). The “proliferation of HK-2 cells under a high glucose condition” value in data set [3] (5, 10, 25, 50, 100 μmol/L) is “could promote the proliferation of HK-2 cells under a high glucose condition, and the promotion of the proliferation was dose-dependent”. Further, the “effect on the proliferation of HK-2” value in data set [3] is given as “had an effect on inhibiting”. For the same compound, the “contents of FBG, T-CHO, TG, GOT, GPT” value in data set [4] is “tended to be normal”. The “protein expressions of NOX1, NOX2, NOX4, α-SMA, E-cadherin, NF-κB p65, TGF-β1, Smad2, Smad3, Smad4 and Smad7” value in [8] (50 μmol/L, HK-2 cells with high-glucose induced injuries) was “all returned to normal”. In data set [8], the “effect on the formation of EMT” value is “had an effect on inhibiting”. Further, the “mRNA expressions of NOX1, NOX2, NOX4, α-SMA, E-cadherin, NF-κB p65, TGF-β1, Smad2, Smad3, Smad4 and Smad7” value in data set [9] was “all returned to normal”. Moreover, the oral bioavailability entry in data set [10] is “low”. Besides, the cell morphologies result in data set [5] is on record as “close to those of the control group”.
Regarding `OC[C@H]1O[C@@H](O[C@@H]2OC=C[C@H]3[C@H](O)[C@@H]4O[C@]4(CO)[C@@H]23)[C@H](O)[C@@H](O)[C@@H]1O` [catalpol, reference compound], the “effect on the proliferation of HK-2” value in data set [3] is listed as “had an effect on inhibiting”. The “effect on the formation of EMT” value in [8] is “had an effect on inhibiting”.
Turning to `CN(C)C(=N)N=C(N)N` [metformin], in [2], the “Relative distance between administration group and control group in PLS-DA score plot, ESI −” value was 34.94 ± 2.74; the “Relative distance between administration group and control group in PLS-DA score plot, ESI +” value is 36.57 ± 1.53. In addition, the “contents of FBG, T-CHO, TG, GOT, GPT” value in [4] was “tended to be normal”.
